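Cultured in 96-well plates, cells were exposed to test compound for 48 hours across five concentrations. The concentration for 50% growth inhibition is given as GI50. Definition used: TGI = concentration required for complete inhibition of growth.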
Tests used:
Experiment in all cases: NCI anticancer screen, dose series, 48 h
HCT-116 colon = test system: HCT-116 colon
HOP-92 NSCLC = test system: HOP-92 NSCLC
HT29 colon = test system: HT29 colon
K-562 leukemia = test system: K-562 leukemia
NCI-H522 lung = test system: NCI-H522 lung
NCI/ADR-RES ovarian = test system: NCI/ADR-RES ovarian
OVCAR-3 ovarian = test system: OVCAR-3 ovarian
RXF 393 renal = test system: RXF 393 renal
SK-OV-3 ovarian = test system: SK-OV-3 ovarian
SNB-75 CNS = test system: SNB-75 CNS

O=C(Nc1ccc(Cl)cc1F)c1cc(F)ccc1O
GI50 (HCT-116 colon): 702 nM
TGI (HCT-116 colon): 3510 nM
GI50 (HOP-92 NSCLC): 196 nM
TGI (HOP-92 NSCLC): 874 nM
GI50 (HT29 colon): 3240 nM
TGI (HT29 colon): > 34000 nM
GI50 (K-562 leukemia): 609 nM
TGI (K-562 leukemia): > 100000 nM
GI50 (NCI-H522 lung): 379 nM
TGI (NCI-H522 lung): 9260 nM
GI50 (NCI/ADR-RES ovarian): 1630 nM
TGI (NCI/ADR-RES ovarian): 7100 nM
GI50 (OVCAR-3 ovarian): 528 nM
TGI (OVCAR-3 ovarian): 10800 nM
GI50 (RXF 393 renal): 864 nM
TGI (RXF 393 renal): 4280 nM
GI50 (SK-OV-3 ovarian): 1250 nM
TGI (SK-OV-3 ovarian): 10400 nM
GI50 (SNB-75 CNS): 390 nM
TGI (SNB-75 CNS): 6160 nM

[C-]#[O+].[C-]#[O+].[Ir].[O-]c1ccc2ccccc2c1N=Nc1ccccc1
TGI (HCT-116 colon): 24700 nM
TGI (HOP-92 NSCLC): 32400 nM
TGI (HT29 colon): 20600 nM
TGI (K-562 leukemia): 80400 nM
TGI (NCI-H522 lung): 4010 nM
TGI (NCI/ADR-RES ovarian): 51800 nM
TGI (OVCAR-3 ovarian): 17000 nM
TGI (RXF 393 renal): 6780 nM
TGI (SK-OV-3 ovarian): > 68000 nM
TGI (SNB-75 CNS): 59600 nM

O=C1c2ccc3c4c(ccc(c24)C(=O)N1CCCNCc1ccccc1)C(=O)N(CCCNCc1ccccc1)C3=O
GI50 (HCT-116 colon): 80.1 nM
TGI (HCT-116 colon): 390 nM
GI50 (HOP-92 NSCLC): 199 nM
TGI (HOP-92 NSCLC): 585 nM
GI50 (HT29 colon): 42.1 nM
TGI (HT29 colon): 231 nM
GI50 (K-562 leukemia): 136 nM
TGI (K-562 leukemia): 778 nM
GI50 (NCI-H522 lung): 142 nM
TGI (NCI-H522 lung): 303 nM
GI50 (NCI/ADR-RES ovarian): 236 nM
TGI (NCI/ADR-RES ovarian): 779 nM
GI50 (OVCAR-3 ovarian): 130 nM
TGI (OVCAR-3 ovarian): 476 nM
GI50 (RXF 393 renal): 135 nM
TGI (RXF 393 renal): 270 nM
GI50 (SK-OV-3 ovarian): 285 nM
TGI (SK-OV-3 ovarian): 820 nM
GI50 (SNB-75 CNS): 147 nM
TGI (SNB-75 CNS): 291 nM

CNS(=O)(=O)c1ccccc1C(=N)c1ccccc1
TGI (HCT-116 colon): > 100000 nM
TGI (HOP-92 NSCLC): > 100000 nM
TGI (HT29 colon): > 100000 nM
TGI (K-562 leukemia): > 100000 nM
TGI (NCI-H522 lung): > 100000 nM
TGI (NCI/ADR-RES ovarian): > 100000 nM
TGI (OVCAR-3 ovarian): > 100000 nM
TGI (RXF 393 renal): > 100000 nM
TGI (SK-OV-3 ovarian): > 100000 nM
TGI (SNB-75 CNS): > 100000 nM

C[C@@H]1[C@H]2[C@H](C=C3[C@@H]4CC[C@H]5Cc6nc7c(nc6C[C@]5(C)[C@H]4C[C@@H](O)[C@@]32C)C[C@@H]2CC[C@H]3C4=C[C@@H]5O[C@@]6(CC[C@](C)(CO)O6)[C@@H](C)[C@@]5(O)[C@@]4(C)[C@H](O)C[C@@H]3[C@@]2(C)C7)O[C@]12CCC(C)(C)O2
GI50 (HCT-116 colon): 690 nM
TGI (HCT-116 colon): 31200 nM
GI50 (HOP-92 NSCLC): 716 nM
TGI (HOP-92 NSCLC): 13300 nM
GI50 (HT29 colon): 340 nM
TGI (HT29 colon): 2470 nM
GI50 (K-562 leukemia): 345 nM
TGI (K-562 leukemia): 2300 nM
GI50 (NCI-H522 lung): 2260 nM
TGI (NCI-H522 lung): 11800 nM
GI50 (NCI/ADR-RES ovarian): 11000 nM
TGI (NCI/ADR-RES ovarian): > 100000 nM
GI50 (OVCAR-3 ovarian): 5100 nM
TGI (OVCAR-3 ovarian): 31800 nM
GI50 (RXF 393 renal): 70.6 nM
TGI (RXF 393 renal): 333 nM
GI50 (SK-OV-3 ovarian): 472 nM
TGI (SK-OV-3 ovarian): 5290 nM
GI50 (SNB-75 CNS): 140 nM
TGI (SNB-75 CNS): 9540 nM

O=C(C[C@@]1(O)C(=O)Nc2c(Cl)ccc(Cl)c21)c1ccc(C2CC2)cc1
GI50 (HCT-116 colon): 437 nM
TGI (HCT-116 colon): 11900 nM
GI50 (HOP-92 NSCLC): 1460 nM
TGI (HOP-92 NSCLC): 19700 nM
GI50 (HT29 colon): 222 nM
TGI (HT29 colon): 13700 nM
GI50 (K-562 leukemia): 50 nM
TGI (K-562 leukemia): > 51700 nM
GI50 (NCI-H522 lung): 68.2 nM
TGI (NCI-H522 lung): 14100 nM
GI50 (NCI/ADR-RES ovarian): 212 nM
TGI (NCI/ADR-RES ovarian): 13900 nM
GI50 (OVCAR-3 ovarian): 264 nM
TGI (OVCAR-3 ovarian): 3710 nM
GI50 (RXF 393 renal): 257 nM
TGI (RXF 393 renal): 4030 nM
GI50 (SK-OV-3 ovarian): 613 nM
TGI (SK-OV-3 ovarian): 39100 nM
GI50 (SNB-75 CNS): 143 nM
TGI (SNB-75 CNS): 588 nM

Cc1cc(O)c(C2=NN(c3ccc(S(N)(=O)=O)cc3)C(c3ccccc3O)C2)cc1Cl (stereo not given)
GI50 (HCT-116 colon): 1570 nM
TGI (HCT-116 colon): 2910 nM
GI50 (HOP-92 NSCLC): 1460 nM
TGI (HOP-92 NSCLC): 6510 nM
GI50 (HT29 colon): 2070 nM
TGI (HT29 colon): 4070 nM
GI50 (K-562 leukemia): 2170 nM
TGI (K-562 leukemia): 7930 nM
GI50 (NCI-H522 lung): 1910 nM
TGI (NCI-H522 lung): 4720 nM
GI50 (NCI/ADR-RES ovarian): 2820 nM
TGI (NCI/ADR-RES ovarian): 8840 nM
GI50 (OVCAR-3 ovarian): 2610 nM
TGI (OVCAR-3 ovarian): 7620 nM
GI50 (RXF 393 renal): 2050 nM
TGI (RXF 393 renal): 5780 nM
GI50 (SK-OV-3 ovarian): 3860 nM
TGI (SK-OV-3 ovarian): 13200 nM
GI50 (SNB-75 CNS): 1540 nM
TGI (SNB-75 CNS): 8640 nM

C=CC(=O)NCCOc1cccc(Nc2cc(NCCCNC(=O)C3CCC3)c(Br)cn2)c1
GI50 (HCT-116 colon): 798 nM
TGI (HCT-116 colon): > 25000 nM
GI50 (HOP-92 NSCLC): 826 nM
TGI (HOP-92 NSCLC): > 25000 nM
GI50 (HT29 colon): 548 nM
TGI (HT29 colon): 2840 nM
GI50 (K-562 leukemia): 1160 nM
TGI (K-562 leukemia): > 25000 nM
GI50 (NCI-H522 lung): 819 nM
TGI (NCI-H522 lung): 4960 nM
GI50 (NCI/ADR-RES ovarian): 8740 nM
TGI (NCI/ADR-RES ovarian): > 25000 nM
GI50 (OVCAR-3 ovarian): 836 nM
TGI (OVCAR-3 ovarian): 3750 nM
GI50 (RXF 393 renal): 283 nM
TGI (RXF 393 renal): 639 nM
GI50 (SK-OV-3 ovarian): 1000 nM
TGI (SK-OV-3 ovarian): 4060 nM
GI50 (SNB-75 CNS): 252 nM
TGI (SNB-75 CNS): 1380 nM

CCN1/C(=C/C=C/C=C/c2sc3ccccc3[n+]2CC)Sc2ccccc21
GI50 (HCT-116 colon): 181 nM
TGI (HCT-116 colon): 828 nM
GI50 (HOP-92 NSCLC): 320 nM
TGI (HOP-92 NSCLC): 3270 nM
GI50 (HT29 colon): 230 nM
TGI (HT29 colon): 1200 nM
GI50 (K-562 leukemia): 65.2 nM
TGI (K-562 leukemia): 512 nM
GI50 (NCI-H522 lung): 281 nM
TGI (NCI-H522 lung): 1510 nM
GI50 (NCI/ADR-RES ovarian): 2990 nM
TGI (NCI/ADR-RES ovarian): 16700 nM
GI50 (OVCAR-3 ovarian): 331 nM
TGI (OVCAR-3 ovarian): 1180 nM
GI50 (RXF 393 renal): 805 nM
TGI (RXF 393 renal): 2530 nM
GI50 (SK-OV-3 ovarian): 359 nM
TGI (SK-OV-3 ovarian): 1130 nM
GI50 (SNB-75 CNS): 243 nM
TGI (SNB-75 CNS): 1470 nM

Fc1c[c-]c(-c2ccccn2)c(F)c1.[CH3-].[Pt+2].c1ccc([PH+](c2ccccc2)c2ccccn2)cc1
GI50 (HCT-116 colon): 1300 nM
TGI (HCT-116 colon): 2800 nM
GI50 (HOP-92 NSCLC): 1180 nM
TGI (HOP-92 NSCLC): 2680 nM
GI50 (HT29 colon): 2440 nM
TGI (HT29 colon): > 100000 nM
GI50 (K-562 leukemia): 1780 nM
TGI (K-562 leukemia): > 100000 nM
GI50 (NCI-H522 lung): 1940 nM
TGI (NCI-H522 lung): 8180 nM
GI50 (NCI/ADR-RES ovarian): 1810 nM
TGI (NCI/ADR-RES ovarian): 5350 nM
GI50 (OVCAR-3 ovarian): 1440 nM
TGI (OVCAR-3 ovarian): 2880 nM
GI50 (RXF 393 renal): 1320 nM
TGI (RXF 393 renal): 2760 nM
GI50 (SK-OV-3 ovarian): 5090 nM
TGI (SK-OV-3 ovarian): > 100000 nM
GI50 (SNB-75 CNS): 1030 nM
TGI (SNB-75 CNS): 9900 nM

CCc1nc(-n2c(CC)nc3ccccc3c2=O)nc(N)c1-c1ccc(Cl)cc1
GI50 (HCT-116 colon): > 26200 nM
TGI (HCT-116 colon): > 100000 nM
GI50 (HOP-92 NSCLC): 18000 nM
TGI (HOP-92 NSCLC): 99900 nM
GI50 (HT29 colon): 16200 nM
TGI (HT29 colon): > 100000 nM
GI50 (K-562 leukemia): 17600 nM
TGI (K-562 leukemia): > 100000 nM
GI50 (NCI-H522 lung): > 100000 nM
TGI (NCI-H522 lung): > 100000 nM
GI50 (NCI/ADR-RES ovarian): 7170 nM
TGI (NCI/ADR-RES ovarian): > 100000 nM
GI50 (OVCAR-3 ovarian): 31800 nM
TGI (OVCAR-3 ovarian): > 100000 nM
GI50 (RXF 393 renal): > 100000 nM
TGI (RXF 393 renal): > 100000 nM
GI50 (SK-OV-3 ovarian): > 100000 nM
TGI (SK-OV-3 ovarian): > 100000 nM
GI50 (SNB-75 CNS): > 100000 nM
TGI (SNB-75 CNS): > 100000 nM

Clc1ccccc1-c1nc(-c2ccncc2)no1
TGI (HCT-116 colon): > 100000 nM
TGI (HOP-92 NSCLC): > 100000 nM
TGI (HT29 colon): > 100000 nM
TGI (K-562 leukemia): > 100000 nM
TGI (NCI-H522 lung): > 100000 nM
TGI (NCI/ADR-RES ovarian): > 100000 nM
TGI (OVCAR-3 ovarian): > 100000 nM
TGI (RXF 393 renal): > 100000 nM
TGI (SK-OV-3 ovarian): > 100000 nM
TGI (SNB-75 CNS): > 100000 nM

CN(C)c1ccc(/C=C/c2ccnc3ccc4ccccc4c23)cc1
TGI (HCT-116 colon): > 100000 nM
TGI (HOP-92 NSCLC): > 100000 nM
TGI (HT29 colon): > 100000 nM
TGI (K-562 leukemia): > 100000 nM
TGI (NCI-H522 lung): > 100000 nM
TGI (NCI/ADR-RES ovarian): > 100000 nM
TGI (OVCAR-3 ovarian): > 100000 nM
TGI (RXF 393 renal): 44900 nM
TGI (SK-OV-3 ovarian): > 100000 nM
TGI (SNB-75 CNS): 70400 nM
